# Measured values as given in paper PMC11061835, “Elucidating the Mechanism of Metabolism of Cannabichromene by Human Cytochrome P450s” (Journal of Natural Products, 2024).
# “And” between values parts separate entries of the source, which are not always exact repeats. Equal entries are not always repeated.
# Assays:
# CYP2J2 [1] = biological target: T1, CYP2J2 (Homo sapiens, UniProt P51589); assay: Spectroscopic titration (Soret shift), CYP2J2; type: binding; conditions: CYP2J2, absence of CPR
# T1 construct: His-tag; made in house; host or cells: E. coli DH-5α with pTGro7 plasmid
# T1 sequence (P51589 1-502): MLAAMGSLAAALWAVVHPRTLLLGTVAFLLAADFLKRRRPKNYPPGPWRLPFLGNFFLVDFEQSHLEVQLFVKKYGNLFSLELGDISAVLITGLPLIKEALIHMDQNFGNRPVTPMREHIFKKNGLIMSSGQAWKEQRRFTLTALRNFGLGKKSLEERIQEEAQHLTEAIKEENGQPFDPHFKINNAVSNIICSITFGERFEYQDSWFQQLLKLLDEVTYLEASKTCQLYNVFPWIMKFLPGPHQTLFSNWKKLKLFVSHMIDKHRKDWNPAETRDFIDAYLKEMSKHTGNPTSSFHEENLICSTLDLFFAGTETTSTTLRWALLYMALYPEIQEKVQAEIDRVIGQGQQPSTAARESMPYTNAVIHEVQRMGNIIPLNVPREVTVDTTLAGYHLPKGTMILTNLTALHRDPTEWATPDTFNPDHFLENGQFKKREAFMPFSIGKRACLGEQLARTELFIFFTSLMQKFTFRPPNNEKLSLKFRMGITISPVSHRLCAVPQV
# Experimental: CBC binding to various CYPs was determined by analyzing the Soret shift from ∼417 to ∼390 nm. CBC (stock 10 mM) was dissolved in ethanol and titrated with different CYPs at room temperature. Buffer-exchanged CYP2J2, CYP2D6, CYP3A4, and CYP2C8 (concentrations of proteins were kept between 4 and 5 μM) were dissolved in 0.1 M phosphate buffer (pH = 7.4), and initial spectra were recorded from 200 to 800 nm with a prominent peak at 417 nm. The concentration of CBC was varied from 0 to 100 μM keeping the final concentration of substrate in EtOH not more than 1% in cuvette. 0–4 μL of stock CBC was added using a Hamilton syringe in both the sample and blank cuvettes. The mixture was incubated for 5 min at 37 °C, and absorbance spectra were recorded using a Cary Bio 300 UV–vis spectrophotometer (Agilent Technologies, Santa Clara, CA). To eliminate the background absorbance, we derived the final spectra by […].
# TRPV1 = test system: TRPV1; set-up: method as in PMID 30697147; conditions: read-out: agonism toward TRPV1; cited from earlier work
# CYP2D6 = CYP2D6 (Homo sapiens, UniProt P10635); assay: CBC metabolism by CYP2D6; type: in vitro ADME; set-up: His-tag; made in house; host or cells: E. coli DH-5α with pTGro7 plasmid (CYP)
# CYP2D6, sequence (P10635 whole entry): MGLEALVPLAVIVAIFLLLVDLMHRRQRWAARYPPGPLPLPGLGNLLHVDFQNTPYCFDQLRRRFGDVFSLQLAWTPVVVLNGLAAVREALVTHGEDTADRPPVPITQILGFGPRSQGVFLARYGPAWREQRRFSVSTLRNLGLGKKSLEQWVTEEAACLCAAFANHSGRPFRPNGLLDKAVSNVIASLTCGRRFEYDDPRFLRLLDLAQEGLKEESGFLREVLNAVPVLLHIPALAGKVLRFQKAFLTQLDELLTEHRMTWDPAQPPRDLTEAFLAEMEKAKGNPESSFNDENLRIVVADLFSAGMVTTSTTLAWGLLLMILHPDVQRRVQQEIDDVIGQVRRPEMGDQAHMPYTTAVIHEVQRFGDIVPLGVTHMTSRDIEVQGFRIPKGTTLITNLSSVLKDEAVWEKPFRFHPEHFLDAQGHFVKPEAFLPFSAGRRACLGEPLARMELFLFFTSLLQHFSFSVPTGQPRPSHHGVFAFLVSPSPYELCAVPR
# CYP2D6, sequence (P16435 whole entry partner): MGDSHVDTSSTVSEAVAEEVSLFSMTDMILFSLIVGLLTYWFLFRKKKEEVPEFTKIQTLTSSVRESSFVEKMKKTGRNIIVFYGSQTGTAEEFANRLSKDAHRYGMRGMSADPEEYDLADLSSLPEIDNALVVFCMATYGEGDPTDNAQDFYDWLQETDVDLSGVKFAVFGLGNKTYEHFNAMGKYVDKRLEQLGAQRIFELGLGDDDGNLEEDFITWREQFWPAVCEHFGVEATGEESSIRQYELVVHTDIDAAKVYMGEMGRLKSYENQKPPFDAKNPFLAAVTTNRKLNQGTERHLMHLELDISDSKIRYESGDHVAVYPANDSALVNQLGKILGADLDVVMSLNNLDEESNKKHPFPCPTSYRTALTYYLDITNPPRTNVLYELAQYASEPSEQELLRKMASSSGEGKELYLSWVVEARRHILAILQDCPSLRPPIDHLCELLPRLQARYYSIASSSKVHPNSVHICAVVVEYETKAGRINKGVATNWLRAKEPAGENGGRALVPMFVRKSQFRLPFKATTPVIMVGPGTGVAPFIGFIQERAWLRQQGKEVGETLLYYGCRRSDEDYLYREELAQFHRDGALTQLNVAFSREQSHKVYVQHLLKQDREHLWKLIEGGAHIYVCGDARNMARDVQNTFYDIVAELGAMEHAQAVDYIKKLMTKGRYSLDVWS
# Experimental: (§1) To study the kinetics of CBC metabolism, concentration dependent metabolism of CBC was carried out in the presence of various CYPs using the following procedure. CYP2J2, CYP2C8, CYP2D6, CYP2C9, and CYP3A4 (final concentration 0.5 μM) were initially dissolved in lipid containing POPC:POPS (8:2 v/v) followed by addition of CPR (final concentration 0.6 μM) in 0.1 M potassium phosphate buffer (pH 7.4). CBC (5–80 μM) was added and incubated at 37 °C for 10 min. The reaction was triggered by NADPH and extracted using the exact sample protocol as mentioned in the HLM section.
# (§2) Samples were analyzed with the 5500 QTRAP LC/MS/MS system (Sciex, Framingham, MA) in the Metabolomics Lab of Roy J. Carver Biotechnology Center, University of Illinois at Urbana–Champaign. Software Analyst 1.7.1 was used for data acquisition and analysis. The 1200 series HPLC system (Agilent Technologies, Santa Clara, CA) includes a degasser, an autosampler, and a binary pump. […] Multiple reaction monitoring (MRM) was used for quantitation: CBC m/z 315.1 → m/z 135.0; 1-acetoxy-6′,7′-dihydroxy-CBC (JM-I-73) m/z 349.1→ m/z 193.0; 1″-hydroxy-CBC (JM-I-66) m/z 331.1→ m/z 275.1; 6′,7′-epoxy-CBC (JM-I-27) m/z 331.1→ m/z 193.0; 7′,10′-ene-6′-hydroxy-CBC (JM-I-30) m/z 331.1→ m/z 193.0; 8′-hydroxy-CBC (JM-I-32) […]→ m/z 77.0. Internal standard EET-EA-d11 was monitored at m/z 375.2→ m/z 357.1.
# CYP2J2 [2] = biological target: T1, CYP2J2; assay: CBC metabolism by CYP2J2; type: in vitro ADME
# Experimental: as §1, §2
Compound,ΔAmax (spin state change due to heme perturbation) (CYP2J2 [1]),Kd (CYP2J2 [1]; read-out: Kd(app)),EC50 (TRPV1),"preference for 8′-hydroxy-CBC formation compared to 6′,7′-epoxy-CBC (CYP2D6)","ratio of 8′-hydroxy-CBC to 6′,7′-epoxy-CBC formed (CYP2J2 [2]; CYP2J2, from Vmax)",production of 8′-hydroxy-CBC with CYP2J2 relative to CYP2C8 (CYP2J2 [2]; CYP2J2 vs CYP2C8)
"CCCCCc1cc(O)c2c(c1)OC(C)(CCC=C(C)C)C=C2 (stereo not drawn) [CBC, Cannabichromene]",0.04 ± 0.00 and ~0.04,3.06 µM and ~3 µM,< 10 µM,–,–,–
CCCCCc1cc(O)c2c(c1)OC(C)(CC/C=C(\C)CO)C=C2 (stereo not drawn) [8′-hydroxy-CBC],–,–,–,3–4 times,approximately 50,~10 times
